# In US20080058373A1, “Compositions and Methods for Treating or Preventing Glaucoma or Progression Thereof” (priority 2006, published 2008):
# “And” between values parts separate entries of the source, which are not always exact repeats. Equal entries are not always repeated.
# Legend:
# [1] = test system: rabbit eye (anterior chamber paracentesis); assay: Pupillary diameter measurement, rabbit paracentesis model; assay type: in vivo; conditions: for Pupillary diameter T1: −180 min: 50 μl drops, −180 min (basal); for Pupillary diameter T1: −180 min / Pupillary diameter T2: −5 min / Pupillary diameter T3: +115 min: single eyes, listed as BOL; for Pupillary diameter T2: −5 min: 5 min before the first paracentesis; for Pupillary diameter T3: +115 min: 5 min before the second paracentesis; for Pupillary diameter Mean Δ(T3 − T1): group mean, n=8 eyes
# Method: (§1) Each rabbit was placed in a restraint device and tagged with the alphanumeric code. The formulations were instilled (50 μl) into the conjunctival sac of both eyes 180, 120, 90 and 30 min before the first paracentesis; then 15, 30, 90 min after the first paracentesis. To perform the first paracentesis the animals were anaesthetized by intravenous injection of 5 mg/kg Zoletil® (Virbac; 2.5 mg/kg tiletamine HCl and 2.5 mg/kg zolazepam HCl) and one drop of local anesthetic (Novesina®, Novartis) was administered to the eye. Anterior chamber paracentesis was performed with a 26 G needle attached to a tuberculin syringe; the needle was introduced into the anterior chamber through the cornea, taking care not to damage the tissues. Two hours after the first paracentesis, the animals were sacrificed with 0.4 ml Tanax® (Intervet International B.V.) and the second paracentesis was performed. About 100 μl of aqueous humor were removed at the second paracentesis. Aqueous humor was immediately split in four aliquots and stored at −80° C. until analysis. Then both eyes were enucleated and the iris-ciliary body was carefully excised, placed in polypropylene tubes, and stored at −80° C. until analysis.
# The pupillary diameter of both eyes was measured with a Castroviejo caliper 180 min and 5 min before the first paracentesis and 5 min before the second paracentesis.
# Prostaglandin E2 (PGE2) = Prostaglandin E2 (PGE2) measurement in aqueous humor, rabbit paracentesis model; assay type: in vivo; conditions: second paracentesis, group mean
# Method: as §1
# For the quantitative determination of PGE2 in the aqueous humor we used the PGE2 Immunoassay kit (R&D Systems; Cat.No. KGE004; Lot.No. 240010). Eleven microliters or 16 μl of aqueous humor were diluted to 110 μl or 160 μl with the calibrator diluent solution provided with the kit. One hundred microliters of samples and of standards were load into a 96-well plate and recorded in a plate layout. Samples were treated following the assay procedure described in the kit. A microplate reader (GDV, Italy; model DV 990 B/V6) set at 450 nm (wavelength correction at 540 nm) was used for making the calibration and analyzing the samples.
# Leukocytes (PMN) = Leukocytes (PMN) measurement in aqueous humor, rabbit paracentesis model; assay type: in vivo; conditions: for PMN numbers in aqueous humor, Mean: second paracentesis, group mean
# Method: as §1
# For the determination of the number of leukocytes we used a haemocytometer (Improved Neubauer Chamber; Bright-line, Hausser Scientific) and a Polyvar 2 microscope (Reichert-Jung).
# [2] = test system: New Zealand White rabbits; assay: Ophthalmic observations (slit lamp, McDonald Shadduck system) in the rabbit IOP study; assay type: in vivo; parameters: key to Cornea Score: 1: Some loss of transparency. Only the epithelium and/or the anterior half of the stoma are involved. The underlying structures are clearly visible although some cloudiness may be readily apparent; key to Conjunctival congestion Score: A flushed, reddish color predominantly confined to the palpebral conjunctiva with some perilimbal injection but primarily confined to the lower and upper parts of the eye from the 4:00 to 7:00 and 11:00 to 1:00 positions; key to Ophthalmic Observation (Slit-Lamp): AN: Appeared normal
# Method: Prior to placement on study, each animal underwent a pre-treatment ophthalmic examination (slit lamp and indirect ophthalmoscopy). Observations were scored according to the McDonald Shadduck system and recorded using a standardized data collection sheet.
# Ophthalmic examinations (slit lamp) were performed prior to the first dosing on Days 5, 12, 22, 26, and 33. Ocular findings were scored according to the McDonald Shadduck system and recorded using a standardized data collection sheet.
# [3] = test system: rabbit eye (anterior chamber paracentesis); assay: Clinical evaluation by slit lamp (clinical score), rabbit paracentesis model; assay type: in vivo; parameters: key to Clinical Score −180 min / Clinical Score −5 min / Clinical Score +115 min: 0=normal; 1=discrete dilatation of iris and conjunctival vessels; 2=moderate dilatation of iris and conjunctival vessels; 3=intense iridal hyperemia with flare in the anterior chamber; 4=intense iridal hyperemia with flare in the anterior chamber and presence of fibrinous exudates; conditions: for Clinical Score −5 min: 5 min before the first paracentesis; for Clinical Score −5 min / Clinical Score +115 min / Clinical Score −180 min: single eyes; for Clinical Score +115 min: 5 min before the second paracentesis
# [4] = test system: primary human corneal epithelial cells; assay: IL-1β-stimulated cytokine production in primary HCECs (30-cytokine Luminex kit)
# Method: Primary HCECs were seeded in 24-well plates. […] Each treatment was performed in triplicate. Media were collected and used for determination of cytokine content using a 30-cytokine Luminex kit. Cell viability was determined by alamarBlue assay (LP06013).
# Median fluorescence intensity (MFI) was used to obtain the concentration of each cytokines in pg/ml based on the standard curve of each cytokine assayed by Luminex. The linear range of the standard curve for each cytokine was used for determination of cytokine concentration. Duplicate values for each sample were averaged. Data were expressed as mean±SD. Statistical analysis was performed using one-way ANOVA-Dunnett's test, and P<0.05 was considered statistically significant.
# protein in aqueous humor = assay: Protein measurement in aqueous humor, rabbit paracentesis model; assay type: in vivo; conditions: for Protein levels in aqueous humor, Mean: second paracentesis, group mean
# Method: as §1
# For protein concentration determination in the aqueous humor we used the Protein Quantification Kit (Fluka; Cat.No. 77371; Lot.No. 1303129). Five microliters of aqueous humor were diluted to 100 μl with water. Twenty microliters of samples and of standards were load into a 96-well plate and recorded in a plate layout. Samples were treated following the assay procedure described in the kit. A microplate reader (GDV, Italy; model DV 990 B/V6) set at 670 nm was used for making the calibration and analyzing the samples.
# [5] = 10 mg/g, treated right eye, Day 5
# [6] = 0.1% topical, +115 min, N=8 eyes
# [7] = 0.5% topical, +115 min, N=8 eyes
# [8] = 10 ng/ml IL-1β-stimulated HCECs, 18 h, P<0.05
# [9] = IL-1β-stimulated HCECs, 18 h, P<0.05
structure (smiles),measurement,setting,value
Cc1ccc2c(NCC(O)(CC(C)(C)c3cc(F)cc4c3OCC4)C(F)(F)F)cccc2n1 (stereo not drawn),Pupillary diameter T1: −180 min,[1]; 0.1% topical,6.5 mm and 7.0 mm and 7.5 mm
same,Pupillary diameter T2: −5 min,[1]; 0.1% topical,6.5 mm and 7.0 mm and 7.5 mm
same,Pupillary diameter T3: +115 min,[1]; 0.1% topical,5.0 mm and 6.0 mm and 6.5 mm and 5.5 mm
same,Pupillary diameter Mean Δ(T3 − T1),[1]; 0.1% topical,−1.1 mm
same,Pupillary diameter T1: −180 min,[1]; 0.5% topical,8.0 mm and 7.0 mm and 7.5 mm
same,Pupillary diameter T2: −5 min,[1]; 0.5% topical,8.0 mm and 7.0 mm and 7.5 mm
same,Pupillary diameter T3: +115 min,[1]; 0.5% topical,6.5 mm and 6.0 mm and 7.0 mm
same,Pupillary diameter Mean Δ(T3 − T1),[1]; 0.5% topical,−1.0 mm
same,Pupillary diameter T1: −180 min,[1]; 1% topical,6.0 mm and 6.5 mm
same,Pupillary diameter T2: −5 min,[1]; 1% topical,6.0 mm and 6.5 mm and 7.0 mm
same,Pupillary diameter T3: +115 min,[1]; 1% topical,5.5 mm and 5.0 mm and 6.0 mm
same,Pupillary diameter Mean Δ(T3 − T1),[1]; 1% topical,−0.9 mm
same,"Levels of PGE2 in aqueous humor, Mean",Prostaglandin E2 (PGE2); 0.1% topical,1.452 ng/mL
same,"Levels of PGE2 in aqueous humor, Mean",Prostaglandin E2 (PGE2); 0.5% topical,1.384 ng/mL
same,"Levels of PGE2 in aqueous humor, Mean",Prostaglandin E2 (PGE2); 1% topical,2.168 ng/mL
same,"PMN numbers in aqueous humor, Mean",Leukocytes (PMN); 0.1% topical,28.333 number/μl
same,"PMN numbers in aqueous humor, Mean",Leukocytes (PMN); 0.5% topical,21.250 number/μl
same,PMN numbers in aqueous humor (raw data),"Leukocytes (PMN); 1% topical, samples collected at the second paracentesis, single eyes, listed as BOL",30 number/μl and 20 number/μl and 40 number/μl
same,"PMN numbers in aqueous humor, Mean",Leukocytes (PMN); 1% topical,28.750 number/μl
same,Slit-lamp ocular findings (other findings),"[2]; 1 mg/g suspension, dosed right eye (Group D, No. 3043)",a subconjunctival hemorrhage
same,Ophthalmic Observation (Slit-Lamp),"[2]; 1 mg/g, treated right eye, Day 5, 12, 22, 26",AN
same,Ophthalmic Observation (Slit-Lamp),"[2]; 1 mg/g, treated right eye, Day 5, 12, 22, 26, 33",AN
same,Ophthalmic Observation (Slit-Lamp),"[2]; 1 mg/g, treated right eye, Day 5, 12, 26, 33",AN
same,Conjunctival congestion Score,"[2]; 1 mg/g, treated right eye, Day 22",1
same,Conjunctival congestion Score,"[2]; 5 mg/g, treated right eye, Day 5",1
same,Ophthalmic Observation (Slit-Lamp),"[2]; 5 mg/g, treated right eye, Day 5, 12",AN
same,Ophthalmic Observation (Slit-Lamp),"[2]; 5 mg/g, treated right eye, Day 5, 12, 22",AN
same,Ophthalmic Observation (Slit-Lamp),"[2]; 5 mg/g, treated right eye, Day 5, 12, 22, 26, 33",AN
same,Ophthalmic Observation (Slit-Lamp),"[2]; 5 mg/g, treated right eye, Day 5, 12, 26, 33",AN
same,Ophthalmic Observation (Slit-Lamp),"[2]; 5 mg/g, treated right eye, Day 5, 12, 33",AN
same,Ophthalmic Observation (Slit-Lamp),"[2]; 5 mg/g, treated right eye, Day 12, 22, 26, 33",AN
same,Conjunctival congestion Score,"[2]; 5 mg/g, treated right eye, Day 22",1
same,Conjunctival congestion Score,"[2]; 5 mg/g, treated right eye, Day 22, 26",1
same,Conjunctival congestion Score,"[2]; 5 mg/g, treated right eye, Day 26",1
same,Slit-lamp ocular findings (other findings),"[2]; 10 mg/g suspension, dosed right eye (Group B, No. 3083)",a pinpoint corneal scar
same,Ophthalmic Observation (Slit-Lamp),[2]; [5],AN
same,Surface area of cornea involvement Score,[2]; [5],1 (1-25% area of stromal cloudiness.)
same,Conjunctival congestion Score,"[2]; 10 mg/g, treated right eye, Day 5, 12",1
same,Ophthalmic Observation (Slit-Lamp),"[2]; 10 mg/g, treated right eye, Day 5, 12, 22, 26, 33",AN
same,Ophthalmic Observation (Slit-Lamp),"[2]; 10 mg/g, treated right eye, Day 5, 12, 22, 33",AN
same,Ophthalmic Observation (Slit-Lamp),"[2]; 10 mg/g, treated right eye, Day 5, 22, 26, 33",AN
same,Cornea Score,"[2]; 10 mg/g, treated right eye, Day 5, pinpoint corneal scar",1^(2)
same,Conjunctival congestion Score,"[2]; 10 mg/g, treated right eye, Day 12",1
same,Ophthalmic Observation (Slit-Lamp),"[2]; 10 mg/g, treated right eye, Day 12, 22, 26, 33",AN
same,Ophthalmic Observation (Slit-Lamp),"[2]; 10 mg/g, treated right eye, Day 22, 26, 33",AN
same,Conjunctival congestion Score,"[2]; 10 mg/g, treated right eye, Day 26",1
same,Clinical Score −5 min,[3]; 0.1% topical,0
same,Clinical Score +115 min,"[3]; 0.1% topical, listed as BOL",2 and 3
same,Percentage of eyes with clinical score 2,[3]; [6],75%
same,Percentage of eyes with clinical score 3,[3]; [6],25%
same,Percentage of eyes with clinical score 0,"[3]; 0.1% topical, −5 min, N=8 eyes",100%
same,Percentage of eyes with clinical score 0,"[3]; 0.1% topical, −180 min (basal), N=8 eyes",100%
same,Clinical Score −180 min,"[3]; 0.1% topical, −180 min (basal)",0
same,Clinical Score −5 min,[3]; 0.5% topical,0
same,Clinical Score +115 min,"[3]; 0.5% topical, listed as BOL",2 and 1
same,Percentage of eyes with clinical score 1,[3]; [7],37.5%
same,Percentage of eyes with clinical score 2,[3]; [7],62.5%
same,Percentage of eyes with clinical score 0,"[3]; 0.5% topical, −5 min, N=8 eyes",100%
same,Percentage of eyes with clinical score 0,"[3]; 0.5% topical, −180 min (basal), N=8 eyes",100%
same,Clinical Score −180 min,"[3]; 0.5% topical, −180 min (basal)",0
same,Clinical Score −5 min,[3]; 1% topical,0
same,Clinical Score +115 min,[3]; 1% topical,2
same,Percentage of eyes with clinical score 2,"[3]; 1% topical, +115 min, N=8 eyes",100%
same,Percentage of eyes with clinical score 0,"[3]; 1% topical, −5 min, N=8 eyes",100%
same,Percentage of eyes with clinical score 0,"[3]; 1% topical, −180 min (basal), N=8 eyes",100%
same,Clinical Score −180 min,"[3]; 1% topical, −180 min (basal)",0
same,Concentration at which a significant inhibitory effect was observed on IL-6,[4]; [8],1 nM
same,Concentration at which a significant inhibitory effect was observed on MCP-1,[4]; [8],10 nM
same,Concentration at which a significant inhibitory effect was observed on TGF-α,[4]; [8],10 nM
same,Concentration at which a significant inhibitory effect was observed on TNF-α,[4]; [8],10 nM
same,Potency versus dexamethasone for inhibition of G-CSF production,[4]; IL-1β-stimulated HCECs,more potent than dexamethasone
same,"Potency versus dexamethasone for inhibition of GM-CSF, IL-8 and RANTES production",[4]; IL-1β-stimulated HCECs,somewhat less potent than dexamethasone
same,"Potency versus dexamethasone for inhibition of IL-6, IL-7, TGF-α, TNF-α, VGEF and MCP-1 production",[4]; IL-1β-stimulated HCECs,comparable potency
same,"Inhibition of IL-1β-stimulated production of 6 cytokines (IL-6, IL-7, MCP-1, TGF-α, TNF-α and VEGF)","[4]; IL-1β-stimulated HCECs, 18 h",significantly inhibited
same,Concentration at which a significant inhibitory effect was observed on G-CSF,[4]; [9],10 µg/mL
same,Concentration at which a significant inhibitory effect was observed on GM-CSF,[4]; [9],10 nM
same,Concentration at which a significant inhibitory effect was observed on RANTES,[4]; [9],no significant effect
same,"Protein levels in aqueous humor, Mean",protein in aqueous humor; 0.1% topical,33.667 mg/mL
same,Protein levels in aqueous humor (raw data),"protein in aqueous humor; 0.5% topical, samples collected at the second paracentesis, single eyes, listed as BOL",33.98 mg/mL and 33.65 mg/mL and 19.99 mg/mL and 27.11 mg/mL and 19.72 mg/mL and 36.35 mg/mL and 27.71 mg/mL and 32.24 mg/mL
same,"Protein levels in aqueous humor, Mean",protein in aqueous humor; 0.5% topical,28.844 mg/mL
same,"Protein levels in aqueous humor, Mean",protein in aqueous humor; 1% topical,21.435 mg/mL
